{"source": "paper PMC8591201", "about": "“Anti-Tumor Activity of AZD4547 Against NTRK1 Fusion Positive Cancer Cells Through Inhibition of NTRKs” (Frontiers in Oncology, 2021)", "test_in_all_cases": "cells", "set-up_in_all_cases": "Anti-proliferation, 10-point dose response, CellTiter-Glo luminescence (MTT stated for KM12(Luc)), GI50 fitted in Prism", "key": {"HTH-7": {"tested_on": "HTH-7", "conditions": "KM12-Luc, 72 h, read-out: GI50 (µM) a"}, "K-562": {"tested_on": "K-562", "conditions": "Homo sapiens, K562, 72 h, read-out: GI50 (µM) a"}, "HCC70": {"tested_on": "HCC70", "conditions": "Homo sapiens, HCC70, 72 h, read-out: GI50 (µM) a"}, "RS4-11": {"tested_on": "RS4-11", "conditions": "Homo sapiens, RS4-11, 72 h, read-out: GI50 (µM) a"}, "KM12-Luc": {"tested_on": "KM12-Luc", "conditions": "KM12-Luc, 72 h, read-out: GI50 (µM) a"}, "PC-3": {"tested_on": "PC-3", "conditions": "Homo sapiens, PC-3, 72 h, read-out: GI50 (µM) a"}, "MDA-MB-231": {"tested_on": "MDA-MB-231", "conditions": "Homo sapiens, MDA-MB-231, 72 h, read-out: GI50 (µM) a"}, "U-2-OS": {"tested_on": "U-2-OS", "conditions": "Homo sapiens, U2OS, 72 h, read-out: GI50 (µM) a"}, "SW480": {"tested_on": "SW480", "conditions": "Homo sapiens, SW480, 72 h, read-out: GI50 (µM) a"}, "PANC-1": {"tested_on": "PANC-1", "conditions": "Homo sapiens, PANC-1, 72 h, read-out: GI50 (µM) a"}, "MKN45": {"tested_on": "MKN45", "conditions": "Homo sapiens, MKN-45, 72 h, read-out: GI50 (µM) a"}, "NCI-H1975": {"tested_on": "NCI-H1975", "conditions": "Homo sapiens, NCI-H1975, 72 h, read-out: GI50 (µM) a"}}, "data": [{"smiles": "COc1cc(CCc2cc(NC(=O)c3ccc(N4C[C@@H](C)N[C@@H](C)C4)cc3)n[nH]2)cc(OC)c1", "note": "[AZD4547]", "values": [{"measurement": "GI50", "setting": "HTH-7", "result": 6.44, "unit": "µM"}, {"measurement": "GI50", "setting": "K-562", "result": 17.1, "unit": "µM"}, {"measurement": "GI50", "setting": "HCC70", "result": 16.6, "unit": "µM"}, {"measurement": "GI50", "setting": "RS4-11", "result": 3.24, "unit": "µM"}, {"measurement": "GI50", "setting": "KM12-Luc", "result": 0.11, "unit": "µM"}, {"measurement": "GI50", "setting": "PC-3", "result": 10.6, "unit": "µM"}, {"measurement": "GI50", "setting": "MDA-MB-231", "result": 20.9, "unit": "µM"}, {"measurement": "GI50", "setting": "U-2-OS", "result": 0.43, "unit": "µM"}, {"measurement": "GI50", "setting": "SW480", "result": 14.1, "unit": "µM"}, {"measurement": "GI50", "setting": "PANC-1", "result": 8.65, "unit": "µM"}, {"measurement": "GI50", "setting": "MKN45", "result": 12, "unit": "µM"}, {"measurement": "GI50", "setting": "NCI-H1975", "result": 28.9, "unit": "µM"}]}]}
